Measurements taken from US20240300949A1, “NOVEL CRYSTALLINE FORM OF 1-(8-BROMOPYRIDO[2,3-E][1,2,4]TRIAZOLO[4,3-A]PYRAZIN-4-YL)-N-METHYLAZETIDIN-3-AMINE HEMISUCCINATE” (JW PHARMACEUTICAL CORPORATION, priority 2021, published 2024).

Tests used:
[1] = solid-state stability on drying in vacuum oven at 60° C. (XRPD, FIG. 8); type: physicochemical
From the text: Form F is a channel hydrate and generally channel hydrates/solvates are not very stable since the solvent molecules easily can move in and out of the channels and causes collapse of the crystal lattice. In the case of form F the water molecules are placed in the same molecular plane as the succinate molecules which stabilize the hydrate and makes form F particularly useful for use in a solid pharmaceutical product, such as in a tablet. Furthermore, form F can be dried under moderate drying conditions such as in a vacuum oven at 60° C. […] Also form F has been found suitable for large scale drying.
FIG. 8: XRPD's of Form F stored in vacuum at 60° for different periods of time. At each time point of a quick XRPD (9 min) and a normal XRPD (1 hour) were recorded
XRPD patterns were collected with a PANalytical X'pert Empyrean diffractometer using an incident Cu Kα radiation and operating at 45 kV and 40 mA. The XRPD patterns were collected in the 2 theta range from 3 to 60 degrees with a step size of 0.013°, counting time of 198.645s and in transmission geometry. 25 repetitions were done and summarized. In the incident beam path, an parabolic shaped beam Cu W/Si (hybrid MPD) monochromator together with a 10 mm fixed mask, fixed anti-scatter slit ⅛° and fixed divergence slits of 1/16° were placed to line focus the Cu Kα X-rays through the sample and onto the detector. […]

[2] = solid-state stability on micronization; type: physicochemical
[3] = target: histamine 4 receptor (Homo sapiens, UniProt Q9H3N8); details: background statement, refers to U.S. Pat. No. 9,586,959; cited from earlier work
[4] = system: inflammatory cells such as mast cells and eosinophils; details: background statement, refers to U.S. Pat. No. 9,586,959; cited from earlier work

histamine 4 receptor, sequence (Q9H3N8 whole entry): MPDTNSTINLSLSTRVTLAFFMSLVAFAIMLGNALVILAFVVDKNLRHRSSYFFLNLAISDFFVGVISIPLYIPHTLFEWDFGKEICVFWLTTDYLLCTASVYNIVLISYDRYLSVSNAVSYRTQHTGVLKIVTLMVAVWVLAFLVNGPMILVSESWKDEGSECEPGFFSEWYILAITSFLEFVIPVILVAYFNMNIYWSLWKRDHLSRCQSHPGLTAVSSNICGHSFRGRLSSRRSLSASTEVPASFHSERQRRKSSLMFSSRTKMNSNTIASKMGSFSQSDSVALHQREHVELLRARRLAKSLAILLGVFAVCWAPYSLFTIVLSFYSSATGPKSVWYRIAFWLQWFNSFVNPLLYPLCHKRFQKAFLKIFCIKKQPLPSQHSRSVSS

1-(8-bromopyrido[2,3-e][1,2,4]triazolo[4,3-a]pyrazin-4-yl)-N-methylazetidin-3-amine hemisuccinate monohydrate [form F]
crystal lattice stability on drying [1]: without collapsing the crystal lattice
stability of crystalline form on micronization [2]: tolerates micronization without undergoing amorphization

CNC1CN(c2nc3ncc(Br)cc3n3cnnc23)C1 [1-(8-bromopyrido[2,3-e][1,2,4]triazolo[4,3-a]pyrazin-4-yl)-N-methylazetidin-3-amine]
histamine 4 receptor inhibitory effect [3]: strong
effect against histamine induced infiltration of inflammatory cells such as mast cells and eosinophils [4]: suppressive effects
